Reference: patent US10167507B2, “Metabolic diseases-related odorant receptor genes and use thereof” (INDUSTRY-ACADEMIC COOPERATION FOUNDATION, YONSEI UNIVERSITY, priority 2010, dated 2019)
One block for each compound: values may come before it.

Experiments:
[1] = test system: olfactory receptors in liver tissue; experiment: OligoDNA microarray, liver tissue of HFD mice fed odor components; format: in vivo, mouse
Source text: (§1) The obesity-inducing control diet used in the test was high-fat diet (HFD: 40% fat calorie, 17 g lard+3% corn oil/100 g diet). Diets supplemented with an odor component had the same composition as HFD, except that each of various types of odor components (indol-3-carbinol, oleuropein, cedryl acetate, α-cedrene and piperine) having anti-obesity efficacy was contained in 0.02-0.05% concentration. Indo)-3-carbinol, oleuropein, cedryl acetate, a-cedrene and piperine were purchased from Sigma-Aldrich.
(§2) After adding Trizol agent to visceral fat or liver tissue, the mixture was homogenized and centrifuged at 12,000×g for 10 min at 4° C. The supernatant was transferred to a new tube to remove fat layer. Then, 200 μl of chloroform was added to the tube, followed by vortexing. The same procedure was repeated twice and then the supernatant was transferred to a new tube, followed by addition of isopropanol and the supernatant at 1:1 ratio. The mixture was vigorously shaken 10 times and then incubated for 10 min at room temperature, followed by centrifugation at 12,000×g for 10 min at 4° C. to remove the supernatant. After adding 1 mL of 70% ethanol to the remaining pellet, it was centrifuged at 7,500×g for 5 min at 4° C. After removing the ethanol, the RNA pellet contained in the tube was dried for 5 min at 4° C. and dissolved in nuclease-free water. The RNA sample concentration was measured at a wavelength of 260 nm and 280 nm using a UV/VIS spectrophotometer (Beckman coulter, DU730) and the integrity of RNA sample was verified by agarose gel electrophoresis.
(§3) DNA microarry analysis using RNAs of visceral fat and liver tissue was conducted by GENOCHECK (CO., LTD.). RNA samples were pooled from 10 mice in each experimental group and subjected to microarray experiments in triplicate for the test of reproducibility. NimbleGen Mouse Whole Oligo 12-plex chip used in this experiment was prepared by triplicating 42,576 genes using Mouse Genome Build 8 as database. In NimbleGen mouse Whole Oligo 12-plex chip, 137,090 spots excluded control group gene were spotted by 16 μm×16 μm size in 17.4 mm×13 mm size. 42,576 oligo included […] genes which are known their functions and 5,431 transcripts and EST sequences which are unknown their functions. 10-50 μg of total RNA was added in oligo-dT primer, reverse transcriptase, dNTP, Cy3-dUTP and Cy5-dUTP, and reverse-transcripted according to the kit manufacturer's recommendations. The resultant was purified using cartridge, dried and dissolved in hybridization buffer solution (30 μL). The microarray was placed in hybridization cassette, heated at 95-100° C. for 5 min, mixed independently to each of RNA labeled with Cy3 and Cy5, and hybridized at 45° C. for 18 hrs. The slide was washed twice in solution containing 1×SSC and 0.1% SDS for 5 min, washed in 1×SSC for 5 min and dried to analyze.
(§4) The profile for olfactory receptors in which the expression was regulated by more than 2-fold change due to intake of odor components at each tissue was shown in Tables 5. As a result, it was determined that various types of odor components having anti-obesity efficacy regulated a plurality of olfactory receptors in peripheral tissues.

[2] = test system: olfactory receptors in visceral fat and liver tissues; experiment: OligoDNA microarray, visceral fat and liver tissues of HFD mice fed odor components (tissue not separated in text); format: in vivo; details: supplemented to mouse fed high-fat diet for 10 weeks
Source text: as §1, §2, §3, §4

[3] = test system: olfactory receptors in visceral fat tissue; experiment: OligoDNA microarray, visceral fat tissue of HFD mice fed odor components; format: in vivo, mouse
Protocol: DNA microarry analysis using RNAs of visceral fat and liver tissue was conducted by GENOCHECK (CO., LTD.). RNA samples were pooled from 10 mice in each experimental group and subjected to microarray experiments in triplicate for the test of reproducibility. NimbleGen Mouse Whole Oligo 12-plex chip used in this experiment was prepared by triplicating 42,576 genes using Mouse Genome Build 8 as database. In NimbleGen mouse Whole Oligo 12-plex chip, 137,090 spots excluded control group gene were spotted by 16 μm×16 μm size in 17.4 mm×13 mm size. 42,576 oligo included 137,145 genes which are known their functions and 5,431 transcripts and EST sequences which are unknown their functions. 10-50 μg of total RNA was added in oligo-dT primer, reverse transcriptase, dNTP, Cy3-dUTP and Cy5-dUTP, and reverse-transcripted according to the kit manufacturer's recommendations. The resultant was purified using cartridge, dried and dissolved in hybridization buffer solution (30 μL). The microarray was placed in hybridization cassette, heated at 95-100° C. for 5 min, mixed independently to each of RNA labeled with Cy3 and Cy5, and hybridized at 45° C. for 18 hrs. The slide was washed twice in solution containing 1×SSC and 0.1% SDS for 5 min, washed in 1×SSC for 5 min and dried to analyze.

[4] = test system: CREB (cAMP-responsive element binding protein); experiment: Western blotting, protein phosphorylation of CREB; format: in vivo, mouse
Protocol: (§5) A certain amount of visceral fat or liver tissues in mortar was homogenized with liquid nitrogen and cell lysis buffer. The mixture was transferred to a new tube, followed by vortexing. After centrifugation at 13,000×g for 20 min at 4° C., the middle layer of the tube was obtained and proteins were quantified by Bradford method. 50 μg of protein was electrophorized to SDS polyacrylamide gel, followed by electroblotting to PVDF hyper film. The protein was reacted using an appropriate antibody for the protein and detected by ECL, whereby insulin resistance, adipocyte differentiation, lipid metabolism or energy consumption-related mechanism of phytochemical components was investigated in the protein level.
(§6) In order to verify this, protein phosphorylations of HSL (hormone sensitive lipase), CREB (cAMP-responsive element binding protein) and AKT (v-akt murine thymoma viral oncogene) were evaluated by western blotting analysis.

[5] = test system: AKT (v-akt murine thymoma viral oncogene); experiment: Western blotting, protein phosphorylation of AKT; format: in vivo, mouse
Protocol: as §5, §6

[6] = test system: HSL (hormone sensitive lipase); experiment: Western blotting, protein phosphorylation of HSL; format: in vivo, mouse
Protocol: as §5, §6

[7] = test system: obesity and metabolic diseases-related genes in visceral fat tissue; experiment: RT-PCR of obesity and metabolic diseases-related genes, visceral fat tissue; format: in vivo, mouse; details: odor component-supplemented group to the HFD control group
Protocol: After adding 1 mL of Trizol agent (Invitrogen, USA) per 0.1 g of visceral fat or liver tissues, the mixture was homogenized and centrifuged at 12,000×g for 10 min at 4° C. The supernatant was transferred to a new tube and 200 μl of chloroform was added to the tube, followed by vortexing. The same procedure was repeated twice and then the supernatant was transferred to a new tube, followed by addition of isopropanol and the supernatant at 1:1 ratio. The mixture was vigorously shaken 10 times and then incubated for 10 min at room temperature, followed by centrifugation at 12,000×g for 10 min at 4° C. to remove the supernatant. After adding 1 mL of 70% ethanol to the remaining pellet, it was centrifuged at 7,500×g for 5 min at 4° C. After removing the ethanol, the RNA pellet contained in the tube was dried for 5 min at 4° C. and dissolved in nuclease-free water. The RNA sample concentration was measured at a wavelength of 260 nm and 280 nm using a UV/VIS spectrophotometer (Beckman coulter, DU730) and the integrity of RNA sample was verified by agarose gel electrophoresis. The RNA sample obtained from the visceral fat or liver tissues was trasnscribed using oligo dT primer and reverse transcriptase (GIBCO BRL, Gaithersburg, Md., USA) to synthesize cDNA. The PCR amplification was performed using the cDNA as templates and primers complementary to cDNA [NT] flanking sequence. 1 μl of the amplified products were resolved on agarose gel electrophoresis to verify DNA band.

[8] = supplemented to HFD-fed mouse 10 weeks
[9] = odor component-supplemented group to the HFD control group
[10] = western blotting, compared to the HFD control group

- expression of olfactory receptor 38 [1]: increased
- expression of olfactory receptor 878 [1]: increased
- expression of olfactory receptor 1045 [1]: decreased
- Olfr38 expression fold change to HFD group [1, 8]: 3.83
- Olfr878 expression fold change to HFD group [1, 8]: 5.87
- Olfr1045 expression fold change to HFD group [1, 8]: 0.43
- Olfr1222 expression fold change to HFD group [1, 8]: 2.15
- expression of olfactory receptor 38 increased [2]: more than 2 fold change
- expression of olfactory receptor 878 increased [2]: more than 2 fold change
- expression of olfactory receptor 1045 decreased [2]: more than 2 fold change
- expression of olfactory receptor 1222 increased [2]: more than 2 fold change
SMILES: CC1=CC[C@@]23C[C@@H]1C(C)(C)[C@@H]2CC[C@H]3C [α-cedrene]

- Olfr16 expression fold change to HFD group [1, 8]: 0.47
- Olfr116 expression fold change to HFD group [1, 8]: 2.12
- Olfr178 expression fold change to HFD group [1, 8]: 2.06
- Olfr196 expression fold change to HFD group [1, 8]: 0.45
- Olfr259 expression fold change to HFD group [1, 8]: 0.50
- Olfr290 expression fold change to HFD group [1, 8]: 2.11
- Olfr466 expression fold change to HFD group [1, 8]: 0.49
- Olfr686 expression fold change to HFD group [1, 8]: 0.35
- Olfr1045 expression fold change to HFD group [1, 8]: 0.45
- Olfr1153 expression fold change to HFD group [1, 8]: 2.82
- Olfr1216 expression fold change to HFD group [1, 8]: 0.41
- Olfr1329 expression fold change to HFD group [1, 8]: 0.48
- Olfr1337 expression fold change to HFD group [1, 8]: 0.49
- Olfr380 expression fold change to HFD group [3, 8]: 2.20
- Olfr909 expression fold change to HFD group [3, 8]: 3.45
- Olfr972 expression fold change to HFD group [3, 8]: 0.43
- Olfr1093 expression fold change to HFD group [3, 8]: 0.42
- Olfr1165 expression fold change to HFD group [3, 8]: 0.39
- Olfr1462 expression fold change to HFD group [3, 8]: 2.26
SMILES: OCc1c[nH]c2ccccc12 [Indole-3 carbinol]

SMILES: CC(=O)O[C@]1(C)CC[C@@]23C[C@@H]1C(C)(C)[C@@H]2CC[C@H]3C [cedryl acetate]
- CREB phosphorylation, increase (change rate) [4, 9]: 39% increase
- phosphorylation of CREB [4, 10]: significantly increased
- expression of olfactory receptor 38 [1]: increased
- expression of olfactory receptor 77 [1]: decreased
- expression of olfactory receptor 275 [1]: increased
- expression of olfactory receptor 878 [1]: increased
- Olfr38 expression fold change to HFD group [1, 8]: 2.39
- Olfr77 expression fold change to HFD group [1, 8]: 0.5
- Olfr275 expression fold change to HFD group [1, 8]: 2.64
- Olfr305 expression fold change to HFD group [1, 8]: 2.21
- Olfr878 expression fold change to HFD group [1, 8]: 2.76
- Olfr77 expression fold change to HFD group ([1]; supplemented to HFD-fed mouse 10 weeks, listed as Cedryl acetate): 0.50
- AKT phosphorylation, increase (change rate) [5, 9]: 33% increase
- phosphorylation of AKT [5, 10]: significantly increased
- expression of olfactory receptor 290 [3]: increased
- expression of olfactory receptor 341 [3]: decreased
- expression of olfactory receptor 380 [3]: increased
- expression of olfactory receptor 1104 [3]: increased
- expression of olfactory receptor 1165 [3]: decreased
- Olfr290 expression fold change to HFD group [3, 8]: 2.40
- Olfr341 expression fold change to HFD group [3, 8]: 0.32
- Olfr380 expression fold change to HFD group [3, 8]: 2.14
- Olfr417 expression fold change to HFD group [3, 8]: 0.42
- Olfr618 expression fold change to HFD group [3, 8]: 0.43
- Olfr663 expression fold change to HFD group [3, 8]: 2.04
- Olfr1058 expression fold change to HFD group [3, 8]: 2.18
- Olfr1104 expression fold change to HFD group [3, 8]: 3.22
- Olfr1123 expression fold change to HFD group [3, 8]: 2.64
- Olfr1125 expression fold change to HFD group [3, 8]: 2.07
- Olfr1136 expression fold change to HFD group [3, 8]: 0.43
- Olfr1157 expression fold change to HFD group [3, 8]: 0.46
- Olfr1165 expression fold change to HFD group [3, 8]: 0.36
- Olfr1442 expression fold change to HFD group [3, 8]: 2.18
- HSL phosphorylation, increase (change rate) [6, 9]: 46% increase
- phosphorylation of HSL [6, 10]: significantly increased
- expression of olfactory receptor 38 increased [2]: more than 2 fold change
- expression of olfactory receptor 77 decreased [2]: more than 2 fold change
- expression of olfactory receptor 275 increased [2]: more than 2 fold change
- expression of olfactory receptor 290 increased [2]: more than 2 fold change
- expression of olfactory receptor 305 increased [2]: more than 2 fold change
- expression of olfactory receptor 341 decreased [2]: more than 2 fold change
- expression of olfactory receptor 380 increased [2]: more than 2 fold change
- expression of olfactory receptor 417 decreased [2]: more than 2 fold change
- expression of olfactory receptor 618 decreased [2]: more than 2 fold change
- expression of olfactory receptor 663 increased [2]: more than 2 fold change
- expression of olfactory receptor 878 increased [2]: more than 2 fold change
- expression of olfactory receptor 1058 increased [2]: more than 2 fold change
- expression of olfactory receptor 1104 increased [2]: more than 2 fold change
- expression of olfactory receptor 1123 increased [2]: more than 2 fold change
- expression of olfactory receptor 1125 increased [2]: more than 2 fold change
- expression of olfactory receptor 1136 decreased [2]: more than 2 fold change
- expression of olfactory receptor 1157 decreased [2]: more than 2 fold change
- expression of olfactory receptor 1165 decreased [2]: more than 2 fold change
- expression of olfactory receptor 1442 increased [2]: more than 2 fold change
- C/EBPα gene expression, decrease (change rate) [7]: 36% decrease
- CPT1 gene expression, increase (change rate) [7]: 47% increase^
- FAS gene expression, decrease (change rate) [7]: 43% decrease
- IL-6 gene expression, decrease (change rate) [7]: 74% decrease
- PGC1α gene expression, increase (change rate) [7]: 57% increase^
- PPARγ2 gene expression, decrease (change rate) [7]: 25% decrease
- SIRT1 gene expression, increase (change rate) [7]: 650% increase ^
- TNFα gene expression, decrease (change rate) [7]: 99% decrease
- UCP1 gene expression, increase (change rate) [7]: 899% increase ^
- UCP3 gene expression, increase (change rate) [7]: 65% increase^
- aP2 gene expression, decrease (change rate) [7]: 33% decrease
